Assay results reported in patent publication US9757375B2, “Compounds that inhibit human DNA ligases and methods of treating cancer” (University of Maryland, Baltimore, priority 2007, dated 2017).
Entries after “also recorded” stand apart in the source; their conditions may differ.

What follows are compounds tested against T1, hLigI (Homo sapiens, UniProt P18858) (assay: High-throughput fluorescence-based DNA joining (ligation) assay). Details: 100 uM.
T1 construct: made in house
Assay type: biochemical
Procedure, shortened: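 Nicked DNA substrate (10 pmol) was incubated with 0.25 pmol hLigI, with or without 100 μmol/L test compound, in duplicate. Afterwards the DNA was denatured and renatured with a 20-fold excess of unmodified oligonucleotide. Ligation forms an AF488/BHQ1 hairpin, read as reduced fluorescence at 518 nm.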

T1 sequence (P18858 whole entry): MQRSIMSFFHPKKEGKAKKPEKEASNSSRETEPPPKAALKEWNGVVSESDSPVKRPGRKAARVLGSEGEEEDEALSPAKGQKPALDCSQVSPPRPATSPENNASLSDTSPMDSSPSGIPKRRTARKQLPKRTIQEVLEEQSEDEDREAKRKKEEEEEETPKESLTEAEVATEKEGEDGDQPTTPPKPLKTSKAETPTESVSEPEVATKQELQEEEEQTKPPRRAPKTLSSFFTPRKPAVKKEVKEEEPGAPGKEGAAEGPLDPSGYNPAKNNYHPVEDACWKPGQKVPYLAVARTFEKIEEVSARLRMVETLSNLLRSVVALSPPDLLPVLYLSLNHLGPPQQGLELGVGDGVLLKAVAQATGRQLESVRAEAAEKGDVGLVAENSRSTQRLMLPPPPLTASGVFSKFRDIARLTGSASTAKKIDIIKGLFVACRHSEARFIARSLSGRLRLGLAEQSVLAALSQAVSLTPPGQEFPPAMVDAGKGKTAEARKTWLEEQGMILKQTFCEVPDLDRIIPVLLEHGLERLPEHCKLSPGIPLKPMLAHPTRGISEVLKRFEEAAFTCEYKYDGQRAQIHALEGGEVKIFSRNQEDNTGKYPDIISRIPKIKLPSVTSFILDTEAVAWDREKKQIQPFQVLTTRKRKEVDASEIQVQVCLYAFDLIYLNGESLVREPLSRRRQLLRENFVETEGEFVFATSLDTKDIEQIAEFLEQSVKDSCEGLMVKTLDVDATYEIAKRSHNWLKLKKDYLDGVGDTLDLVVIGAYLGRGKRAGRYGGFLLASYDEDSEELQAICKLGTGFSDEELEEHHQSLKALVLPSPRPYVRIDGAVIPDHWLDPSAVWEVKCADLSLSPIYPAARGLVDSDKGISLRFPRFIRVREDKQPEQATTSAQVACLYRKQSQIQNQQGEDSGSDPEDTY

SMILES	% activity Inhibition hLigI 100 uM [%]
CS(=O)(=O)NNC(=O)C(=O)NNc1ccccc1 [Compound 184]	37.7 ± 12.4

Same assay, conditions: 100 μM

SMILES	% of inhibition @ 100 μM (Helen's data) hLigI [%]	In vitro % inhib hLigI 100 (μM) [%]
CS(=O)(=O)NNC(=O)C(=O)NNc1ccccc1 [Compound 184]	38	38 ± 12

Same assay, conditions: 100 uM; read-out: % activity Inhibition hLigI 100 uM

SMILES	inhibition at 100 µM [%]
O=c1[nH]ncc(N/N=C\c2ccc(O)c([N+](=O)[O-])c2)c1Cl [Compound 82]	59.8 ± 1.7
O=C(Cn1cnc([N+](=O)[O-])n1)N/N=C/c1ccc(O)cc1O [Compound 151]	25.9 ± 1.2
COc1ccc(-c2cnc3c(O)nc(O)nc3n2)cc1 [Compound 190]	52.5 ± 6.6
O=C(c1ccc(O)cc1)c1ccccc1O [Compound 200]	50.7 ± 10.9
Nc1nc(S)nc(O)c1/N=C/c1ccccc1 [Compound 189]	68.8 ± 4.9

Same assay, conditions: 100 μM; read-out: % of inhibition @ 100 μM (Helen's data) hLigI

SMILES	inhibition at 100 µM [%]
O=C(Cn1cnc([N+](=O)[O-])n1)N/N=C/c1ccc(O)cc1O [Compound 151]	25
O=C(c1ccc(O)cc1)c1ccccc1O [Compound 200]	51

Same assay, conditions: 100 μM; read-out: In vitro % inhib hLigI 100

SMILES	inhibition at 100 µM [%]
O=c1[nH]ncc(N/N=C\c2ccc(O)c([N+](=O)[O-])c2)c1Cl [Compound 82]	60 ± 2
O=C(Cn1cnc([N+](=O)[O-])n1)N/N=C/c1ccc(O)cc1O [Compound 151]	26 ± 1
COc1ccc(-c2cnc3c(O)nc(O)nc3n2)cc1 [Compound 190]	53 ± 7
O=C(c1ccc(O)cc1)c1ccccc1O [Compound 200]	51 ± 11
Nc1nc(S)nc(O)c1/N=C/c1ccccc1 [Compound 189]	69 ± 5

Same assay, conditions: in vitro screen, 100 μmol/L; the 15 hLigI inhibitors inhibited by >50%

SMILES	inhibition of hLigI (DNA ligase I), in words
O=c1[nH]ncc(N/N=C\c2ccc(O)c([N+](=O)[O-])c2)c1Cl [Compound 82]	inhibited hLigI; also recorded: inhibit hLigI but not T4 DNA ligase; also recorded: specific for DNA ligase I; also recorded: inhibit DNA ligase 1; also recorded: only inhibits DNA ligase I; also recorded: inhibits only hLigI
O=C(Cn1cnc([N+](=O)[O-])n1)N/N=C/c1ccc(O)cc1O [Compound 151]	specific for DNA ligase I
COc1ccc(-c2cnc3c(O)nc(O)nc3n2)cc1 [Compound 190]	inhibited hLigI; also recorded: specific for DNA ligase I
O=C(c1ccc(O)cc1)c1ccccc1O [Compound 200]	inhibited hLigI; also recorded: specifically inhibit DNA ligases I and III
Nc1nc(S)nc(O)c1/N=C/c1ccccc1 [Compound 189]	inhibited hLigI; also recorded: inhibit hLigI but not T4 DNA ligase; also recorded: inhibits all three human DNA ligases; also recorded: inhibit DNA ligase 1
CS(=O)(=O)NNC(=O)C(=O)NNc1ccccc1 [Compound 184]	specific for DNA ligase I

The compounds below were run against T2, human DNA ligase III (Homo sapiens, UniProt P49916) in the same assay as above. Details: 100 μM.
T2 sequence (P49916 1-862 isoform P49916-4): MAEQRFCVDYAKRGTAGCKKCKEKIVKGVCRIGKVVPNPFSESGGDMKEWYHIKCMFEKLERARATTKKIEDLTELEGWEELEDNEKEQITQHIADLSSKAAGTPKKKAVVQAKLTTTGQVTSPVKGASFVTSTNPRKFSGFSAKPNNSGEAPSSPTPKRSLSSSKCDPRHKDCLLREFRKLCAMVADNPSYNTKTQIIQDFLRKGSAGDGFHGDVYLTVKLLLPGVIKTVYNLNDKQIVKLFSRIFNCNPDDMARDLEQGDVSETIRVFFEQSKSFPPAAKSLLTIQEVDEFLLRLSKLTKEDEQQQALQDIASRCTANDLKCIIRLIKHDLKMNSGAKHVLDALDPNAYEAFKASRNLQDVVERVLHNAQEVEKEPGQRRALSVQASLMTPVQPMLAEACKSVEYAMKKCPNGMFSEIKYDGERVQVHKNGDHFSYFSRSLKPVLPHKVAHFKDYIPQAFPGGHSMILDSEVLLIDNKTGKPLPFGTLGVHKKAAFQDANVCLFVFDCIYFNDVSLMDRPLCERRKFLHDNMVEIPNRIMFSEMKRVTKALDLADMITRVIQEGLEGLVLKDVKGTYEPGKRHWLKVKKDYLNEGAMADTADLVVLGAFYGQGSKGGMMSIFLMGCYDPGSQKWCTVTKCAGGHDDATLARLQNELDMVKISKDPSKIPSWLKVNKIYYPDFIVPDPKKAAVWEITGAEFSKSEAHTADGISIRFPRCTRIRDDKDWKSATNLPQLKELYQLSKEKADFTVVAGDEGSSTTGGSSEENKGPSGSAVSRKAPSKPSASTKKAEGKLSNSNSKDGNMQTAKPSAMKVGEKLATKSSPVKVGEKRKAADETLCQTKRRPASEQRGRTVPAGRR
Assay type: biochemical
Procedure, shortened: (§1)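 Ligation joins an AF488-labelled and a BHQ1-labelled oligonucleotide. After denaturation and renaturation with a 20-fold excess of unlabelled competitor strand, the product forms a quenched hairpin, so joining is read as loss of 518 nm fluorescence. Ligase III used a nicked duplex; ligase IV used two duplexes with short complementary single-strand ends.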

SMILES	% of inhibition @ 100 μM (Helen's data) hLigIII	In vitro % inhib hLigIII 100 (μM) [%]
CS(=O)(=O)NNC(=O)C(=O)NNc1ccccc1 [Compound 184]	NI (NI- no inhibition)	0

Same assay, conditions: 100 μM; read-out: In vitro % inhib hLigIII 100

SMILES	inhibition at 100 µM [%]
O=c1[nH]ncc(N/N=C\c2ccc(O)c([N+](=O)[O-])c2)c1Cl [Compound 82]	29 ± 7
O=C(Cn1cnc([N+](=O)[O-])n1)N/N=C/c1ccc(O)cc1O [Compound 151]	0
COc1ccc(-c2cnc3c(O)nc(O)nc3n2)cc1 [Compound 190]	0
O=C(c1ccc(O)cc1)c1ccccc1O [Compound 200]	60 ± 5
Nc1nc(S)nc(O)c1/N=C/c1ccccc1 [Compound 189]	53 ± 5

Same assay, conditions: 100 uM; Ø not defined (0 in Table 5A)

SMILES	% activity Inhibition hLigIII 100 uM
O=C(Cn1cnc([N+](=O)[O-])n1)N/N=C/c1ccc(O)cc1O [Compound 151]	Ø
COc1ccc(-c2cnc3c(O)nc(O)nc3n2)cc1 [Compound 190]	Ø
CS(=O)(=O)NNC(=O)C(=O)NNc1ccccc1 [Compound 184]	Ø

Same assay, conditions: 100 uM; Ø not defined (0 in Table 5A); read-out: % activity Inhibition hLigIII 100 uM

SMILES	inhibition at 100 µM [%]
O=c1[nH]ncc(N/N=C\c2ccc(O)c([N+](=O)[O-])c2)c1Cl [Compound 82]	29.2 ± 7.3
O=C(c1ccc(O)cc1)c1ccccc1O [Compound 200]	59.5 ± 5.2
Nc1nc(S)nc(O)c1/N=C/c1ccccc1 [Compound 189]	52.6 ± 4.8

Same assay, conditions: in vitro screen

SMILES	inhibition of human DNA ligase III, in words
O=C(c1ccc(O)cc1)c1ccccc1O [Compound 200]	specifically inhibit DNA ligases I and III
Nc1nc(S)nc(O)c1/N=C/c1ccccc1 [Compound 189]	inhibits all three human DNA ligases; also recorded: inhibits DNA ligase III

Same assay, conditions: read-out: % of inhibition @ 100 μM (Helen's data) hLigIII

SMILES	inhibition at 100 µM [%]
O=C(Cn1cnc([N+](=O)[O-])n1)N/N=C/c1ccc(O)cc1O [Compound 151]	< 20
O=C(c1ccc(O)cc1)c1ccccc1O [Compound 200]	60

These compounds were tested against human DNA ligase IV (Homo sapiens, UniProt P49917) in the same assay as above. Details: 100 μM.
Assay type: biochemical
Procedure, shortened: as §1

human DNA ligase IV, sequence (P49917 whole entry): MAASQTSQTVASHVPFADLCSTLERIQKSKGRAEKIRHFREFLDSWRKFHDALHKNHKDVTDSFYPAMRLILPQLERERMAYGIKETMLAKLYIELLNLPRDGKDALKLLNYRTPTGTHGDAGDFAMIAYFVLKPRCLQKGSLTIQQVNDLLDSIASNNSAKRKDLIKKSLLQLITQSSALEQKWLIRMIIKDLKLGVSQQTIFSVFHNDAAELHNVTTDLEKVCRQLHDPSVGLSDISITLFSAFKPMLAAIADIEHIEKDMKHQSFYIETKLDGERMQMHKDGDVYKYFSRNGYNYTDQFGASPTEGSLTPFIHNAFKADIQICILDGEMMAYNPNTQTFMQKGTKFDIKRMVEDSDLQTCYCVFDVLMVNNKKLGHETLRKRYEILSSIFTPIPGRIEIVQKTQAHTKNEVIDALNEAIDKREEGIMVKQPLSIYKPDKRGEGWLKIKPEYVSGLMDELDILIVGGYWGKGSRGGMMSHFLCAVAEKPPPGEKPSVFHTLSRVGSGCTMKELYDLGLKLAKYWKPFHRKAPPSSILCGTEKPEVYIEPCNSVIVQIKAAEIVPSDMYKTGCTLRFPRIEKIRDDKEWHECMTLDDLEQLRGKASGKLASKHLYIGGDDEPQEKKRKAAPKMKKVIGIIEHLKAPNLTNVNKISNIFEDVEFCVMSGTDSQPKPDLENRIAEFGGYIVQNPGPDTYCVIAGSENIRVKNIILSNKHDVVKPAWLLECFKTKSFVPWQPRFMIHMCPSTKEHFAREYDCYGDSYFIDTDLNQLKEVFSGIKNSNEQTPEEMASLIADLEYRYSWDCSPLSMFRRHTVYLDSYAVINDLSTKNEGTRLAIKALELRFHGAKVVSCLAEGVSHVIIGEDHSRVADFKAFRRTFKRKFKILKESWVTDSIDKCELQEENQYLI
human DNA ligase IV, sequence (Q13426 whole entry partner): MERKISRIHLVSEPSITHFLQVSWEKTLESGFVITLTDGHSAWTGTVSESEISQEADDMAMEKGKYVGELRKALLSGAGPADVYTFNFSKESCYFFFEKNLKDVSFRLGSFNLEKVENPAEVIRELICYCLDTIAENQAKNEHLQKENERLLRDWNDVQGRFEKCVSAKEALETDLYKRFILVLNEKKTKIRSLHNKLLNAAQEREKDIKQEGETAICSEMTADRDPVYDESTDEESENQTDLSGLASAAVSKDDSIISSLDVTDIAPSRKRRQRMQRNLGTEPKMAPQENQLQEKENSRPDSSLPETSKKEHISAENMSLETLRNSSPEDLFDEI

SMILES	% of inhibition @ 100 μM (Helen's data) hLigIV	In vitro % inhib hLigIV 100 (μM) [%]
CS(=O)(=O)NNC(=O)C(=O)NNc1ccccc1 [Compound 184]	NI (NI- no inhibition)	0

Same assay, conditions: 100 μM; read-out: % of inhibition @ 100 μM (Helen's data) hLigIV

SMILES	inhibition at 100 µM [%]
O=C(Cn1cnc([N+](=O)[O-])n1)N/N=C/c1ccc(O)cc1O [Compound 151]	< 20
O=C(c1ccc(O)cc1)c1ccccc1O [Compound 200]	< 20

Same assay, conditions: 100 μM; read-out: In vitro % inhib hLigIV 100

SMILES	inhibition at 100 µM [%]
O=c1[nH]ncc(N/N=C\c2ccc(O)c([N+](=O)[O-])c2)c1Cl [Compound 82]	0
O=C(Cn1cnc([N+](=O)[O-])n1)N/N=C/c1ccc(O)cc1O [Compound 151]	0
COc1ccc(-c2cnc3c(O)nc(O)nc3n2)cc1 [Compound 190]	0
O=C(c1ccc(O)cc1)c1ccccc1O [Compound 200]	0
Nc1nc(S)nc(O)c1/N=C/c1ccccc1 [Compound 189]	41 ± 6

Same assay, conditions: 100 uM; Ø not defined (0 in Table 5A)

SMILES	% activity Inhibition hLigIV 100 uM
O=c1[nH]ncc(N/N=C\c2ccc(O)c([N+](=O)[O-])c2)c1Cl [Compound 82]	Ø
O=C(Cn1cnc([N+](=O)[O-])n1)N/N=C/c1ccc(O)cc1O [Compound 151]	Ø
COc1ccc(-c2cnc3c(O)nc(O)nc3n2)cc1 [Compound 190]	Ø
O=C(c1ccc(O)cc1)c1ccccc1O [Compound 200]	Ø
CS(=O)(=O)NNC(=O)C(=O)NNc1ccccc1 [Compound 184]	Ø

Same assay, conditions: 100 uM; Ø not defined (0 in Table 5A); read-out: % activity Inhibition hLigIV 100 uM

SMILES	inhibition at 100 µM [%]
Nc1nc(S)nc(O)c1/N=C/c1ccccc1 [Compound 189]	> 50

Same assay, conditions: in vitro screen

SMILES	inhibition of human DNA ligase IV, in words
O=c1[nH]ncc(N/N=C\c2ccc(O)c([N+](=O)[O-])c2)c1Cl [Compound 82]	do not inhibit DNA ligase IV
Nc1nc(S)nc(O)c1/N=C/c1ccccc1 [Compound 189]	inhibits all three human DNA ligases; also recorded: inhibits DNA ligase IV
